Test results from US6943190B2, “Method of using pyruvate and/or its derivatives for the treatment of cytokine-mediated inflammatory conditions” (University of Pittsburgh-of the Commonwealth System of …, priority 2001, dated 2005).

Columns and labels:
[1] = system: TNF; assay: Serum TNF in endotoxemic mice (ELISA); type: in vivo, Balb/C mice; settings: 2 hours after LPS
Method: Endotoxin shock. Mice were injected with endotoxin (Escherichia coli lipopolysaccharide, LPS 0111:B4; Sigma Chemical Co, St. Louis, Mo.) that was dissolved in sterile pyrogen-free saline at stock concentrations of 10 mg/ml. LPS solutions were sonicated for 20 min immediately prior to use for each experiment. Mice received an LD75 dose of LPS (5 mg/kg, i.p.). Blood was collected at different times after LPS administration, allowed to clot for 2 h at room temperature, then centrifuged for 20 min at 1,500 g. Serum samples were stored at […] prior to analysis. Mortality was recorded for up to 3 weeks after injection to ensure that no additional late deaths occurred.
Cytokine measurements. TNF concentration in mouse serum and in conditioned media from RAW 264.7 cell cultures was measured by ELISA (minimum detectable concentration=10 pg/ml). […] Mouse serum IL-6 and IL-1β levels were measured using ELISA kits (R&D Systems, Inc., Minneapolis, Minn.). HMGB-1 was analyzed by western blot as previously described by Wang et al, 1999. […] Protein was electroblotting to Immun-blot PVDF membrane (Bio-rad, Hercules Calif.) and HMGB-1 was analyzed using polyclonal 241 antibody and secondary anti-rabbit horseradish peroxidase (Amersham, Pitscataway, N.J.). Standard curves were constructed using r-HMGB-1, and the intensity of the 30 kD band analyzed by densitometry. […]

[2] = system: NF-B; assay: LPS-induced NF-kB activation in RAW264.7 cells (EMSA); type: cell-based, murine; settings: EMSA at 15 minutes and 4 hours after LPS
Method: Cell Culture. BALB/c murine macrophage-like RAW 264.7 cells obtained from the American Type Culture Collection (ATCC Number TIB-71, ATCC, Rockville, Mass.) (61), were cultured in RPMI 1640 (Life Technologies, Grand Island, N.Y.) supplemented with 10% heat inactivated fetal bovine serum (Gemini, Calabasas, Calif.), 2 mM glutamine (Cat. # 25030-149, Gibco BRL, Rockville, Mass.) and antibiotic-antimycotic mix (Cat. # 15240-062, Gibco BRL, Rockville, Mass.) in a humidified incubator with 5% CO2. Cells were mechanically removed and resuspended in serum-free Opti-MEM I medium (Life Technology, Grand Island, N.Y.) to perform experiments at 75% confluence.
Nuclear extract preparation. The day before use, cells were plated at a density of 1×10^6 per well in 6 well tissue culture plates. After stimulation at indicated times, cells were removed from the incubator and place on ice immediately. Cells were washed once with 2 ml phosphate buffered saline (PBS) then harvested in 1 ml of PBS containing 2% FBS using rubber scrapper. […] The supernatant was transferred to a new tube, protein concentration was determined using a commercially available Bradford assay (Bio-Rad Protein Assay, Hercules, Calif.). […]

## CCOC(=O)C(C)=O [ethyl pyruvate]
[1]; pretreatment 40 mg/kg 30 min before LPS 5 mg/kg i.p., vehicle printed 17+/−4, P<0.05
  serum TNF: 39+−6 ng TNF/ml
[1]; pretreatment 40 mg/kg
  release of serum TNF (in words): significantly attenuates the release of serum TNF
[2]
  LPS-induced activation of NF-B: significantly prevented LPS-induced activation of NF-B signaling in a concentration dependent fashion
